From patent publication US20190038597A1, “PREVENTION OF VASCULAR AND CARDIAC FIBROSIS VIA IRE1ALPHA INHIBITION” (McMaster University, priority 2017, published 2019)

Experiments:
IRE1α endonuclease = target: T1, IRE1α endonuclease (Rattus norvegicus, UniProt A0A4Y1YQ52); assay: XBP1 splicing assay in VSMCs; type: cell-based
T1 construct: endogenous in cells; host or cells: primary aortic vascular smooth muscle cells from 5-week old WKY rats
Description: VSMCs were treated with tunicamycin (1 μg/ml) and either 4μ8c (30 μM) or STF-083010 (60 μM) for 6 h or 24 h. (A) Agarose gel for assessment of XBP1 splicing after 6 h of treatment with tunicamycin and densitometric quantification. (B) Western blot for assessment of ER chaperone expression after 24 h tunicamycin treatment with or without inhibition of IRE1α by 4μ8c. Data is presented as mean±SEM. *, p<0.05 vs. Vehicle; #, p<0.05 vs. Tm.
VSMCs were cultured in DMEM/F12 containing 1% FBS. Confluent cells were treated with L-ascorbic acid-2-phosphate (100 μg/ml) and either TGF-β1 (5 ng/ml) or Ang II (1 μM). (A) Agarose gel for assessment of TGF-β1-induced XBP1 splicing in VSMCs after 24 h. (B) Picro-Sirius Red assay for measurement of collagen deposition induced by combined TGF-β1 and AA2P treatment after 72 h, and inhibition by 4μ8c and STF-083010. (C) Western blot for assessment of collagen chaperone expression after treatment of TGF-β1 and 4μ8c for 48 h. *, p<0.05. (D) Measurement of Ang II-induced collagen production and inhibition by 4μ8c and STF-083010 after 72 h.
VSMCs were isolated from the aortas of 5-week old WKY rats using the explant method^29. The thoracic aorta was removed from the animal and placed in ice-cold 5× Antibiotics-Antimycotics solution (ThermoFisher). The adventitia was gently removed and the aorta was cut longitudinally. The endothelial layer was removed by gentle scraping with forceps. […]
Total RNA was extracted from cultured cells and rat tissues using the TRIzol reagent (ThermoFisher) according to manufacturer's instructions. RNA concentration and purity were measured using a Nanodrop ND-1000 spectrophotometer (NanoDrop Technologies, Inc.). […]
Aortic VSMCs were isolated from normotensive WKY rats and used for in vitro experiments. […] To test the ability of these compounds to block the IRE1α endonuclease, XBP1 splicing was measured in VSMCs treated with the ER stress inducer tunicamycin for 6 h with or without pre-treatment by 4μ8c or STF-083010. […]

[1] = system: SHR/L-NAME model of hypertension; assay: Collagen content / fibrosis of vessels in L-NAME-treated SHRs; type: in vivo, rat; settings: 18 days
Description: 12-14 week old male SHRs were randomized to receive vehicle, L-NAME (50 mg/L) or L-NAME and 4μ8c (2.5 mg/kg/day i.p.) for 18 days. Aortas and carotid arteries were removed at sacrifice for mechanical and structural analysis. (A) Picro-Sirius Red staining of aorta and carotid artery sections (B) Determination of soluble collagen content in aorta and carotid arteries by Picro-Sirius Red-based assay. Stress-strain curves (C,E), elastic modulus-stress lines (D,F) and the slope of the elastic modulus-stress lines (G,H) were calculated. Data is presented as mean±SEM. *, p<0.05 vs. NT; #, p<0.05 vs. L-NAME. N≥4 per group; 2-5 segments of the thoracic aorta were analyzed per animal. In C to F, lines of best fit are bound by 95% confidence intervals (dotted lines). *, p<0.05.
12-14 week old male SHRs were used to determine the effect of pharmacological IRE1α inhibition on L-NAME-induced vascular stiffening. They were maintained on a 12-hour light-dark cycle with rat chow and water ad libitium. Animals were implanted with radio-telemetry devices (Data Science International, St. Paul, Minn., USA) one week before the start of the study. […]
The wet weight of aortic tissues was determined. […]
Tissues were fixed in 4% paraformaldehyde and subsequently embedded in paraffin. […] Collagen area density was calculated by dividing the PSR-stained area by the total area of the vessel.

T1 sequence (A0A4Y1YQ52 21-977): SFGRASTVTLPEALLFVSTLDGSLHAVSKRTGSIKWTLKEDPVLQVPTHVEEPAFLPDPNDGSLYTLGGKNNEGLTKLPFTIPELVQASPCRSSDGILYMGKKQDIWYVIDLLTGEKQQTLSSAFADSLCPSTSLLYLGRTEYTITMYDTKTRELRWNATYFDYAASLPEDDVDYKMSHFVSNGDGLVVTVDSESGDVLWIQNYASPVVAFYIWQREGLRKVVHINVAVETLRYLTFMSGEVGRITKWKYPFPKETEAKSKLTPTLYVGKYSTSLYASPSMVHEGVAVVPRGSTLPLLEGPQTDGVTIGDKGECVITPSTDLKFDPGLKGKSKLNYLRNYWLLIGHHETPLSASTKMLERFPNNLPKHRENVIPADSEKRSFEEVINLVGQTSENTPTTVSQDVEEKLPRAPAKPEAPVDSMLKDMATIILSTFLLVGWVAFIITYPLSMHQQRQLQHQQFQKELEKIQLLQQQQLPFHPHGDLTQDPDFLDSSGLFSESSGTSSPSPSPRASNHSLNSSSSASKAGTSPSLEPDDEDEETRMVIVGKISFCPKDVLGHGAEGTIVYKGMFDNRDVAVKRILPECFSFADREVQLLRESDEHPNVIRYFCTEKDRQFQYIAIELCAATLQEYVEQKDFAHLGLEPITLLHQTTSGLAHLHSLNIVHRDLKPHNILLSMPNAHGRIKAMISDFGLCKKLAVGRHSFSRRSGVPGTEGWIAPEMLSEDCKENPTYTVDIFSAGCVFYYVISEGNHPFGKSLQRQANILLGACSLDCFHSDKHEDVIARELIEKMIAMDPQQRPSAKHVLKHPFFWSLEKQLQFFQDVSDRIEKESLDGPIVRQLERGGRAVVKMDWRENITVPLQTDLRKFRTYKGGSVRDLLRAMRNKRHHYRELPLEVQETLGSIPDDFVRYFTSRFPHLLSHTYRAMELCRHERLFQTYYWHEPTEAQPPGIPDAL

TGF-β1 induced XBP1 splicing (IRE1α endonuclease; TGF-β1 (5 ng/ml) 24 h, co-treatment, FIG. 2A): blocked
spliced-to-unspliced XBP1 ratio (IRE1α endonuclease; tunicamycin (1 μg/ml) 6 h, 4μ8c 30 μM or STF-083010 60 μM, FIG. 1A): reduced
Structure (SMILES): Cc1cc(=O)oc2c(C=O)c(O)ccc12 [4μ8c, 7-Hydroxy-4-methyl-2-oxo-2H-chromene-8-carbaldehyde]
Collagen content in homogenized aortic tissue ([1]; L-NAME+4μ8c group, PSR-based colorimetric assay): 47.10±2.88 μg/mg tissue
fibrosis and vascular stiffness in the hypertensive animals ([1]; SHR/L-NAME, 4μ8c 2.5 mg/kg/day i.p.): reduced
